According to patent US12447184B1, “Lactic acid bacteria and use thereof” (UNIVERSITY-INDUSTRY COOPERATION GROUP OF KYUNG HEE …, priority 2017, dated 2025):

Experiments:
mouse [1] = test: Tail suspension test (TST); assay type: in vivo; details: depressed mouse model
Protocol: (§1) Also, in order to prepare a mouse with depression induced by immobilization stress, the said mouse, which had been fixed to the apparatus, was repeatedly subjected to continuous immobilization stress once daily for two days, in such a way that the mouse was held with its head up for 12 hours. A lactic acid bacterium was administered once daily for five days, and a behavioral experiment was performed in one hour after a final administration.
According to a method of Steru et al. (Steru L, Chermat R, Thierry B, Simon P (1985) The tail suspension test: A new method for screening antidepressants in mice, Psychopharmacology, Vol. 85; pp. 367-370), a mouse was hanged up in a container 35 cm in diameter and 50 cm in height by placing a fixing device approximately 1 cm from the tip of a tail thereof of a mouse, such that the mouse was suspended 50 cm above a floor. For six minutes in total, an immobility time of the laboratory animal was measured.

colon [2] = test: Colitis indicators (colon length, myeloperoxidase, inflammatory indicators of the colon); assay type: in vivo, mouse; details: antibiotic stress
[3] = tested on: NF-κB (p-p65/p65) and BDNF in a hippocampus; test: NF-κB activity and BDNF expression in hippocampus (immunoblotting); assay type: in vivo; details: depressed mouse
Protocol: (§2) Inflammatory reaction biomarkers such as p-p65, p65, iNOS, COX-2 and β-actin were measured by means of a western blotting method. Particularly, 50 μg of supernatant, which had been obtained by the same method as shown in the said experiment for measuring the activity of myeloperoxidase (MPO), was taken and then immune blotting was performed thereon. Also, an expression level of cytokines was measured by means of ELISA kit, and LPS was measured by means of LAL assay kit.
(§3) In two hours after performing a last behavioral experiment on a depressed mouse, the mouse was anesthetized, and corticosterone in blood was measured by means of ELISA, and a brain derivated neurotrophic factor (BDNF) and NF-κB of a brain and NF-κB of a colon were measured by means of immunoblotting by the same method as shown in Experimental Example 5 above, wherein the results thereof are as shown in a following table 14.

mouse [4] = test: Light/dark transition test; assay type: in vivo; details: immobilization stress model
Protocol: An apparatus used for a light/dark transition test consisted of a bright area (21×42×25 cm, 390 Lux white diode) and a dark area (21×42×25 cm, 2 Lux), which were of a size and partitioned off with a door (7.5×7.5 cm). A mouse was placed in a bright area and observed for five minutes, during which time in bright area and the number of transitions into the bright area were measured. After the end of each behavioral experiment, remaining smell was eliminated by means of 70% ethanol.
According to a known interpretation of test results, it was interpreted that a mental disorder symptom such as anxiety, depression or the like occurs, if the time in bright area and the number of transitions into the bright area decrease.

BDNF in a hippocampus = BDNF in a hippocampus by immunoblotting (LPS-treated mouse); assay type: in vivo; details: mouse given LPS from E. coli 0.5 mg/kg/day i.p. for five days
Protocol: (§4) On a following day after intraperitoneally administering LPS isolated from E. coli (0.5 mg/kg/day) to a mouse for five days, lactic acid bacteria were administered thereto, and an effect of lactic acid bacteria on improving a cognitive function was identified in such a way that an object recognition test and a Y maze test were performed and BDNF in a hippocampus was measured by immunoblotting, wherein the results thereof are as shown in a following table 18.

[5] = tested on: corticosterone, IL-6, TNF-α and lipopolysaccharide in blood; test: Blood indicators (corticosterone, IL-6, TNF-α, lipopolysaccharide); assay type: in vivo, mouse; details: for BC (ng/mL), corticosterone in blood: immobilization stress
Protocol: (§5) An anxiety behavior was measured in five hours after administering the lactic acid bacterium or physiological saline solution, and blood indicators (corticosterone, IL-6, TNF-α, etc.) were measured by collecting blood in one hour after finishing an elevated plus maze test.
Blood was diluted 10 times with PBS, then centrifuged, and then a resulting supernatant was treated at […] for 10 minutes. A resulting supernatant was filtered with a 0.45 μm filter, then filtered again with a 0.22 μm filter, and then used as a specimen. For the said specimen, lipopolysaccharide was measured by means of Limulus amoebocyte lysate (LAL) assay kit (Cape Cod Inc., East Falmouth, MA, U.S.A.).
as §2, §3

C57BL/6 mouse = test: Elevated plus maze (EPM) test; assay type: in vivo; details: for OE (%) / OT (%): immobilization stress
Text: In order to induce a mental disorder such as anxiety, depression, stress or the like, a mouse was fixed to a 3×10 cm cylindrical-shaped immobilization stress apparatus, such that the mouse may not move therein at all.
Particularly, in order to prepare a mouse with anxiety induced by immobilization stress, the said mouse, which had been fixed to the apparatus, was repeatedly subjected to immobilization stress five times, in such a way that the mouse was held with its head up for two hours once every other day, and then a behavioral experiment was performed in two hours after a final immobilization stress.
as §1
In order to induce a mental disorder such as anxiety, depression, stress or the like, a mouse was administered ampicillin (100 mg/kg) for two days in a row. An anxiety behavior was measured in 10 days after administration.
For a mouse model with immobilization stress induced, a lactic acid bacterium or physiological saline solution was administered thereto depending on an experimental group once daily for three days from Day 7 after starting the immobilization stress. For a mouse model with antibiotic stress induced, a lactic acid bacterium or physiological saline solution was administered thereto depending on an experimental group once daily for three days from Day 7 after starting the antibiotic stress.
as §5
An elevated plus maze is an experimental apparatus to measure a degree of a mental disorder such as stress, anxiety or the like. An elevated plus maze experimental apparatus used in the present experiment is a black plexiglass apparatus, in which two open arms (30×7 cm) and two enclosed arms (30×7 cm) with 20 cm-high walls stand 50 cm high above a floor, each extending 7 cm away from a center platform. In the present test, a mouse was placed in the elevated plus maze in a room, where a video camera of 20 Lux was installed high up there, and then a movement of the mouse was recorded.
Particularly, a C57BL/6 mouse (male, 19-22 g) was placed in the middle of the elevated plus maze, in such a way that a head of the mouse faced toward an open arm. Time spent in open and closed arms as well as the number of arm entries were measured for five minutes. An arm entry was defined as a case in which the mouse entered an arm with all four feet.
Out of a whole test time, the time spent in open arms (OT) was calculated via [Time spent in open arms (OT)/(Time spent in open arms (OT)+Time spent in closed arms)]×100. […] After the end of each behavioral experiment, remaining smell was eliminated by means of 70% ethanol.
According to a known interpretation of test results, it was interpreted that a mental disorder symptom such as anxiety, depression or the like occurs, if OT and OE decrease.

mouse [6] = test: Object recognition test; assay type: in vivo; details: mouse given LPS from E. coli 0.5 mg/kg/day i.p. for five days
Protocol: as §4
Particularly, as an object recognition test method, two objects (A, A′) of the same shape and size were fixed into a box (40×40×40 cm), of which outside is not visible from the inside, then a mouse was allowed to start moving at the center of the box, and then the number of touching the two objects was recorded for 10 minutes. In 24 hours later, one of the two objects was replaced with a new one (A, B), and then the number of touching an old one and a new one was recorded and quantified.

colon [7] = test: Colitis indicators (colon length, myeloperoxidase, inflammatory indicators of the colon); assay type: in vivo, mouse; details: immobilization stress
Protocol: 200 μl of 10 mM potassium phosphate buffer, pH 7.0 containing 0.5% hexadecyl trimethyl ammonium bromide was put into 100 mg of a colon tissue, and then subjected to homogenization. A resulting mixture was centrifuged for 10 minutes on condition of 4° C. and 10,000 g, so as to obtain a supernatant. 50 μl of the supernatant was put into 0.95 ml of a reaction solution (containing 1.6 mM tetramethyl benzidine and 0.1 mM H2O2), then subjected to reaction at 37° C., and then an observance was […] measured at 650 nm. An activity of the said myeloperoxidase (MPO) was calculated with a resulting reactant H2O2 1 μmol/ml=1 unit.
as §2
In two hours after performing a last behavioral experiment on an anxious mouse in Experimental Example 1, the mouse was anesthetized, and a colon length and activations of MPO, COX-2, TNF-α and NF-Kb were measured by the same method as shown in Experimental Example 5, wherein the results thereof are as shown in a following table 15.

mouse [8] = test: Y maze test; assay type: in vivo; details: mouse given LPS from E. coli 0.5 mg/kg/day i.p. for five days; spontaneous alteration
Protocol: as §4
Also, as a Y maze test method, a test apparatus consisted of the three identical arms (8 cm in length, […], 14 cm in height), each positioning at a certain angle of 120°. The mouse was placed at the end of one arm and allowed to freely move in a Y maze for eight minutes, after which the number and order of entering respective arms were measured, so as to evaluate a spontaneous alteration (%). The alteration was defined as an alphabetical character order, in which the mouse sequentially entered into three arms, i.e. ABC, BCA, CAB, etc. % alteration=[Total number of alterations]/[Total number of arm entries−2]×100

mouse [9] = test: Forced swimming test (FST); assay type: in vivo; details: depressed mouse model
Protocol: as §1
According to a method of Porsolt et al. (Porsolt R D, Le Pichon, Jalfre M (1977) Depression: A new animal model sensitive to antidepressant treatments, Nature, Vol. 266; pp. 730-732), water at 25±1° C. was filled into a water tank 40 cm in height and 20 cm in diameter, until a water level reached 25 cm high. A laboratory mouse was put into each tank and stayed there for total six minutes, out of which first two minutes were not measured as an adaptive time, and then for the last four minutes, an immobility time of the laboratory animal was measured. The immobility means a state that the mouse is floating in the water motionlessly except the least movement to keep its head only above the water.

[10] = antibiotic stress (ampicillin 100 mg/kg, two days)

## O=C1CC2(CCCC2)CC(=O)N1CCCCN1CCN(c2ncccn2)CC1 [Buspirone]
Mouse [1]
  Immobility time (%): 25.2%
Colon [2]
  Colon length (cm): 5.5 cm
Colon [2]; colon
  Inflammatory indicator inhibition rate COX-2: + (+, 10~30%)
  Inflammatory indicator inhibition rate NF-κB: + (+, 10~30%)
  Inflammatory indicator inhibition rate TNF-α: + (+, 10~30%)
  MPO inhibitory capacity: + (+, 10~30%)
[3]
  BDNF expression level: − (− , <10%)
  NF-kB activation inhibitory capacity: − (− , <10%)
Mouse [4]
  Number of transitions: 19.6
  Time in bright area (%): 40.1%
BDNF in a hippocampus
  Hippocampus BDNF expression capacity: + (+, 10~30%)
[5]; Anxious mouse
  BC (ng/mL), corticosterone in blood: 1.2 ng/mL
[5]; Depressive mouse
  BC (ng/mL), corticosterone in blood: 3.8 ng/mL
[5]; [10]
  Blood corticosterone: 1.6 ng/mL
[5]; depressed mouse, ELISA, Table 14
  Blood corticosterone: 3.8 ng/mL
C57BL/6 mouse; Anxious mouse
  OE (%): 33.8%
C57BL/6 mouse; Anxious mouse, once daily for three days
  OT (%): 16.7%
C57BL/6 mouse; Depressive mouse
  OE (%): 29.8%
  OT (%): 15.7%
C57BL/6 mouse; [10]
  Open arm entries (%): 31.3%
  Time spent in open arms (%): 14.1%
Mouse [6]
  Object recognition test (%): 42.9%
Colon [7]; Anxious mouse
  Colon length (cm): 5.2 cm
Colon [7]; anxious mouse, colon
  Inflammatory indicator inhibition rate COX-2: + (+, 10~30%)
  Inflammatory indicator inhibition rate NF-κB: + (+, 10~30%)
  Inflammatory indicator inhibition rate TNF-α: + (+, 10~30%)
  MPO inhibitory capacity: + (+, 10~30%)
Mouse [8]
  Y maze test (%): 62.4%
Mouse [9]
  Immobility time (%): 32.1%
